IC50 data for 2 compounds are collected here from ChEMBL document CHEMBL3886649, “Compounds and compositions for inhibiting the activity of ABL1, ABL2 and BCR-ABL1” (2016).

The assay deals with Tyrosine-protein kinase ABL1 (Homo sapiens, UniProt P00519). Kind of assay: Radiometric Filter-Binding Assay: For determination of ABL kinase activity, the radiometric filter-binding assay was used. The assay was performed by mixing 10 μL of the compound pre-diluted with 10 μL of ATP ([…] with 0.1 μCi [γ-33P]-ATP) with the phospho-acceptor peptide poly[Ala6Glu2LysHBr5Tyr1]=polyAEKY) in 20 mM Tris/HCl pH 7.5, 1 mM DTT, 10 mM MgCl2, 0.01 mM Na3VO4, 50 mM NaCl. 10 μL ….
Sequence of Tyrosine-protein kinase ABL1 (P00519 whole entry): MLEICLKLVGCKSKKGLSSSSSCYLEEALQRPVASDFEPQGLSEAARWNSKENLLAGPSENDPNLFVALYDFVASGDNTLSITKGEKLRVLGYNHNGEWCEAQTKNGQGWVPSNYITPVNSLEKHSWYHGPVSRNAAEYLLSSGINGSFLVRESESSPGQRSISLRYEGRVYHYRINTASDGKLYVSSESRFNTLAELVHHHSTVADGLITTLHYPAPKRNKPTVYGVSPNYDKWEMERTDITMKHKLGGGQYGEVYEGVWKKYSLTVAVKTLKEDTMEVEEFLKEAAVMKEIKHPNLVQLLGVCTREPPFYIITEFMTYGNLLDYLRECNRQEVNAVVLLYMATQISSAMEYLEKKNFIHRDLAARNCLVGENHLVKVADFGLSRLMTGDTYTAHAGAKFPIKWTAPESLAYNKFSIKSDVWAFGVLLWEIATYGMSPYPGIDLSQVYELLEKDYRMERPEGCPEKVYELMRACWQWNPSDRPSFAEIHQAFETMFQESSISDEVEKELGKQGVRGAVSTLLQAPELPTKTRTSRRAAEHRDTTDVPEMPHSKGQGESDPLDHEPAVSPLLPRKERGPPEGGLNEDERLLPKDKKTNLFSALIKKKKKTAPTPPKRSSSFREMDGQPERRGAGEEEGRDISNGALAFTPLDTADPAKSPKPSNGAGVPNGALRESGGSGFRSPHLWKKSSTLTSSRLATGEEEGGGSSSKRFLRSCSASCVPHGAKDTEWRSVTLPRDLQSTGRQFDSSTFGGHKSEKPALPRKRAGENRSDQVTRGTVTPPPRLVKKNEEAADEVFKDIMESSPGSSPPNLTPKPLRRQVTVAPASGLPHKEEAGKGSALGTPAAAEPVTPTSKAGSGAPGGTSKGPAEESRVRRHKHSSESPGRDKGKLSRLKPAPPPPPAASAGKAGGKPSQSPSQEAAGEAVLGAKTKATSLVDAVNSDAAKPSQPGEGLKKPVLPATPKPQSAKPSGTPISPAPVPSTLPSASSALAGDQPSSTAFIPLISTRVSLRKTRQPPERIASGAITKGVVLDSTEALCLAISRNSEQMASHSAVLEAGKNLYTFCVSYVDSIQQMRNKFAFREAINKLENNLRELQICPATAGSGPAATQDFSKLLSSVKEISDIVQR

Description: Radiometric Filter-Binding Assay: For determination of ABL kinase activity, the radiometric filter-binding assay was used. […] 10 μL of enzyme (ranging between 5 nM to 20 nM) was added to initiate the reaction. Pre-incubation of enzyme with compounds (when stated) was performed by exposing the enzyme to compounds prior to addition of the substrate mixture (ATP and/or peptide substrate). […] Filter-plates were washed 3× with 0.5% H3PO4, followed by addition of 30 μL scintillation cocktail (Microscint, Perkin Elmer) per well and then analysed in a TopCount NXT scintillation counter (Perkin Elmer).

Broadly, the IC50 is the concentration that gives 50% inhibition. In turn, `O=C(Nc1ccc(CC(F)(F)F)cc1)c1cccc(-c2cncnc2)c1` came in with an IC50 of 233 nM. Under `O=C(Nc1ccc(OC(F)(F)F)cc1)c1cnc(C2CCOCC2)c(-c2cncnc2)c1` stands 3 nM.
